The numbers were not newly measured in patent US20240350385A1 (priority 2023, published 2024), which cites them from elsewhere.

For this data set, the system named is patients. The settings on record: in vivo.

2-Octyl cyanoacrylate: the “incidence of allergic contact dermatitis” value is on record as 2.7%.

In the case of `C=C(C#N)C(=O)OCCCC` [n-Butyl cyanoacrylate], the “incidence of allergic contact dermatitis” value is 2.2%.
